What was measured:
[1] = tested on: cocklebur; assay: Test B pre/postemergence cocklebur; format: in vivo, Xanthium strumarium; settings: for Cocklebur plant response rating: scale of 0 to 10 where 0 is no effect and 10 is complete control
Summary of the method: (§1)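 Test chemicals in a non-phytotoxic solvent mixture with surfactant were sprayed preemergence onto planted seeds and postemergence onto plants 2 to 18 cm tall (1- to 4-leaf stage). After twelve to sixteen days in a greenhouse, injury was visually rated against untreated controls from 0 (no effect) to 10 (complete control).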

[2] = tested on: crabgrass; assay: Test B pre/postemergence crabgrass; format: in vivo, Digitaria sanguinalis; settings: for Crabgrass plant response rating: scale of 0 to 10 where 0 is no effect and 10 is complete control
Summary of the method: as §1

[3] = tested on: corn; assay: Test B pre/postemergence corn; format: in vivo, Zea mays; settings: for Corn plant response rating: scale of 0 to 10 where 0 is no effect and 10 is complete control
Summary of the method: as §1

[4] = tested on: pigweed; assay: Test B pre/postemergence pigweed; format: in vivo, Amaranthus retroflexus; settings: for Redroot pigweed plant response rating: scale of 0 to 10 where 0 is no effect and 10 is complete control
Summary of the method: as §1

[5] = tested on: bedstraw; assay: Test B pre/postemergence bedstraw; format: in vivo, Galium aparine; settings: for Bedstraw plant response rating: scale of 0 to 10 where 0 is no effect and 10 is complete control
Summary of the method: as §1

[6] = tested on: soybean; assay: Test B pre/postemergence soybean; format: in vivo, Glycine max; settings: for Soybean plant response rating: scale of 0 to 10 where 0 is no effect and 10 is complete control
Summary of the method: as §1

[7] = tested on: velvetleaf; assay: Test B pre/postemergence velvetleaf; format: in vivo, Abutilon theophrasti; settings: for Velvetleaf plant response rating: scale of 0 to 10 where 0 is no effect and 10 is complete control
Summary of the method: as §1

[8] = tested on: morningglory; assay: Test B pre/postemergence morningglory; format: in vivo, Ipomoea hederacea; settings: for Morningglory plant response rating: scale of 0 to 10 where 0 is no effect and 10 is complete control
Summary of the method: as §1

[9] = tested on: rape; assay: Test B pre/postemergence rape; format: in vivo, Brassica napus; settings: for Rape plant response rating: scale of 0 to 10 where 0 is no effect and 10 is complete control
Summary of the method: as §1

[10] = tested on: wild oat; assay: Test B pre/postemergence wild oat; format: in vivo, Avena fatua; settings: for Wild oats plant response rating: scale of 0 to 10 where 0 is no effect and 10 is complete control
Summary of the method: as §1

[11] = tested on: giant foxtail; assay: Test B pre/postemergence giant foxtail; format: in vivo, Setaria faberii; settings: for Giant foxtail plant response rating: scale of 0 to 10 where 0 is no effect and 10 is complete control
Summary of the method: as §1

[12] = tested on: purple nutsedge; assay: Test B pre/postemergence purple nutsedge; format: in vivo, Cyperus rotundus; settings: for Nutsedge plant response rating: scale of 0 to 10 where 0 is no effect and 10 is complete control
Summary of the method: as §1

[13] = tested on: wheat; assay: Test B pre/postemergence wheat; format: in vivo, Triticum aestivum; settings: for Wheat plant response rating: scale of 0 to 10 where 0 is no effect and 10 is complete control
Summary of the method: as §1

[14] = tested on: surinam grass; assay: Test B pre/postemergence surinam grass; format: in vivo, Brachiaria decumbens; settings: for B. signalgrass plant response rating: scale of 0 to 10 where 0 is no effect and 10 is complete control
Summary of the method: as §1

[15] = tested on: blackgrass; assay: Test B pre/postemergence blackgrass; format: in vivo, Alopecurus myosuroides; settings: for Blackgrass plant response rating: scale of 0 to 10 where 0 is no effect and 10 is complete control
Summary of the method: as §1

[16] = Postemergence, Rate 125 g/ha, scale 0 to 10, 0 is no effect, 10 is complete control
[17] = Postemergence, Rate 250 g/ha, scale 0 to 10, 0 is no effect, 10 is complete control
[18] = Preemergence, Rate 62 g/ha, scale 0 to 10 (0 no effect, 10 complete control)
[19] = Rate 500 g/ha, Postemergence, scale 0 to 10, 0 no effect, 10 complete control

Which results are given for Cc1nnsc1Cn1c(=O)on(C(=O)N(c2ccccc2)C(C)C)c1=O [Compound 378]?
Plant response rating, Cocklebur [1, 16]: 0; Plant response rating, Cocklebur [1, 17]: 0; Plant response rating, Cocklebur [1, 18]: 0; Cocklebur plant response rating (0 to 10 scale) ([1]; Preemergence, Rate 125 g/ha): 0; Cocklebur plant response rating ([1]; Preemergence, Rate 250 g/ha): 0; Cocklebur plant response rating ([1]; Preemergence, Rate 500 g/ha): 0; Cocklebur plant response rating ([1]; Rate 62 g/ha, Postemergence): 0; Plant response rating, Cocklebur [1, 19]: 1; Plant response rating, Crabgrass [2, 16]: 0; Plant response rating, Crabgrass [2, 17]: 0; Plant response rating, Crabgrass [2, 18]: 0; Crabgrass plant response rating (0 to 10 scale) ([2]; Preemergence, Rate 125 g/ha): 3; Crabgrass plant response rating ([2]; Preemergence, Rate 250 g/ha): 9; Crabgrass plant response rating ([2]; Preemergence, Rate 500 g/ha): 10; Crabgrass plant response rating ([2]; Rate 62 g/ha, Postemergence): 0; Plant response rating, Crabgrass [2, 19]: 2; Plant response rating, Corn [3, 16]: 0; Plant response rating, Corn [3, 17]: 0; Plant response rating, Corn [3, 18]: 0; Corn plant response rating (0 to 10 scale) ([3]; Preemergence, Rate 125 g/ha): 0; Corn plant response rating ([3]; Preemergence, Rate 250 g/ha): 0; Corn plant response rating ([3]; Preemergence, Rate 500 g/ha): 0; Corn plant response rating ([3]; Rate 62 g/ha, Postemergence): 0; Plant response rating, Corn [3, 19]: 0; Plant response rating, Redroot pigweed [4, 16]: 0; Plant response rating, Redroot pigweed [4, 17]: 0; Plant response rating, Redroot pigweed [4, 18]: 0; Redroot pigweed plant response rating (0 to 10 scale) ([4]; Preemergence, Rate 125 g/ha): 0; Redroot pigweed plant response rating ([4]; Preemergence, Rate 250 g/ha): 0; Redroot pigweed plant response rating ([4]; Preemergence, Rate 500 g/ha): 0; Redroot pigweed plant response rating ([4]; Rate 62 g/ha, Postemergence): 0; Plant response rating, Redroot pigweed [4, 19]: 2; Plant response rating, Bedstraw [5, 17]: 0; Plant response rating, Bedstraw [5, 18]: 0; Bedstraw plant response rating (0 to 10 scale) ([5]; Preemergence, Rate 125 g/ha): 0; Bedstraw plant response rating ([5]; Preemergence, Rate 250 g/ha): 0; Bedstraw plant response rating ([5]; Preemergence, Rate 500 g/ha): 0; Plant response rating, Soybean [6, 16]: 0; Plant response rating, Soybean [6, 17]: 0; Plant response rating, Soybean [6, 18]: 0; Soybean plant response rating (0 to 10 scale) ([6]; Preemergence, Rate 125 g/ha): 0; Soybean plant response rating ([6]; Preemergence, Rate 250 g/ha): 0; Soybean plant response rating ([6]; Preemergence, Rate 500 g/ha): 0; Soybean plant response rating ([6]; Rate 62 g/ha, Postemergence): 0; Plant response rating, Soybean [6, 19]: 2; Plant response rating, Velvetleaf [7, 16]: 0; Plant response rating, Velvetleaf [7, 17]: 0; Plant response rating, Velvetleaf [7, 18]: 0; Velvetleaf plant response rating (0 to 10 scale) ([7]; Preemergence, Rate 125 g/ha): 0; Velvetleaf plant response rating ([7]; Preemergence, Rate 250 g/ha): 0; Velvetleaf plant response rating ([7]; Preemergence, Rate 500 g/ha): 0; Velvetleaf plant response rating ([7]; Rate 62 g/ha, Postemergence): 0; Plant response rating, Velvetleaf [7, 19]: 3; Plant response rating, Morningglory [8, 16]: 7; Plant response rating, Morningglory [8, 17]: 10; Plant response rating, Morningglory [8, 18]: 0; Morningglory plant response rating (0 to 10 scale) ([8]; Preemergence, Rate 125 g/ha): 0; Morningglory plant response rating ([8]; Preemergence, Rate 250 g/ha): 0; Morningglory plant response rating ([8]; Preemergence, Rate 500 g/ha): 0; Morningglory plant response rating ([8]; Rate 62 g/ha, Postemergence): 5; Plant response rating, Morningglory [8, 19]: 10; Plant response rating, Rape [9, 16]: 0; Plant response rating, Rape [9, 17]: 0; Plant response rating, Rape [9, 18]: 0; Rape plant response rating (0 to 10 scale) ([9]; Preemergence, Rate 125 g/ha): 0; Rape plant response rating ([9]; Preemergence, Rate 250 g/ha): 0; Rape plant response rating ([9]; Preemergence, Rate 500 g/ha): 0; Rape plant response rating ([9]; Rate 62 g/ha, Postemergence): 0; Plant response rating, Rape [9, 19]: 3; Plant response rating, Wild oats [10, 16]: 0; Plant response rating, Wild oats [10, 17]: 0; Plant response rating, Wild oats [10, 18]: 0; Wild oats plant response rating (0 to 10 scale) ([10]; Preemergence, Rate 125 g/ha): 0; Wild oats plant response rating ([10]; Preemergence, Rate 250 g/ha): 0; Wild oats plant response rating ([10]; Preemergence, Rate 500 g/ha): 0; Wild oats plant response rating ([10]; Rate 62 g/ha, Postemergence): 0; Plant response rating, Wild oats [10, 19]: 0; Plant response rating, Giant foxtail [11, 16]: 0; Plant response rating, Giant foxtail [11, 17]: 3; Plant response rating, Giant foxtail [11, 18]: 4; Giant foxtail plant response rating (0 to 10 scale) ([11]; Preemergence, Rate 125 g/ha): 4; Giant foxtail plant response rating ([11]; Preemergence, Rate 250 g/ha): 10; Giant foxtail plant response rating ([11]; Preemergence, Rate 500 g/ha): 10; Giant foxtail plant response rating ([11]; Rate 62 g/ha, Postemergence): 0; Plant response rating, Giant foxtail [11, 19]: 8; Plant response rating, Nutsedge [12, 16]: 0; Plant response rating, Nutsedge [12, 17]: 0; Plant response rating, Nutsedge [12, 18]: 0; Nutsedge plant response rating (0 to 10 scale) ([12]; Preemergence, Rate 125 g/ha): 0; Nutsedge plant response rating ([12]; Preemergence, Rate 250 g/ha): 0; Nutsedge plant response rating ([12]; Preemergence, Rate 500 g/ha): 0; Nutsedge plant response rating ([12]; Rate 62 g/ha, Postemergence): 0; Plant response rating, Nutsedge [12, 19]: 0; Plant response rating, Wheat [13, 16]: 0; Plant response rating, Wheat [13, 17]: 0; Plant response rating, Wheat [13, 18]: 0; Wheat plant response rating (0 to 10 scale) ([13]; Preemergence, Rate 125 g/ha): 0; Wheat plant response rating ([13]; Preemergence, Rate 250 g/ha): 0; Wheat plant response rating ([13]; Preemergence, Rate 500 g/ha): 0; Wheat plant response rating ([13]; Rate 62 g/ha, Postemergence): 0; Plant response rating, Wheat [13, 19]: 0; Plant response rating, B. signalgrass [14, 16]: 0; Plant response rating, B. signalgrass [14, 17]: 0; Plant response rating, B. signalgrass [14, 18]: 0; B. signalgrass plant response rating (0 to 10 scale, 0 is no effect, 10 is complete control) ([14]; Preemergence, Rate 125 g/ha): 0; B. signalgrass plant response rating ([14]; Preemergence, Rate 250 g/ha): 0; B. signalgrass plant response rating ([14]; Preemergence, Rate 500 g/ha): 0; B. signalgrass plant response rating ([14]; Rate 62 g/ha, Postemergence): 0; Plant response rating, B. signalgrass [14, 19]: 2; Plant response rating, Blackgrass [15, 16]: 0; Plant response rating, Blackgrass [15, 17]: 0; Plant response rating, Blackgrass [15, 18]: 0; Blackgrass plant response rating (0 to 10 scale) ([15]; Preemergence, Rate 125 g/ha): 0; Blackgrass plant response rating ([15]; Preemergence, Rate 250 g/ha): 0; Blackgrass plant response rating ([15]; Preemergence, Rate 500 g/ha): 0; Blackgrass plant response rating ([15]; Rate 62 g/ha, Postemergence): 0
